The record followed here is patent publication US5354865A, “Phenylmethyl derivatives having lipoxygenase inhibitory activity” (Abbott Laboratories, priority 1992, dated 1994).

As a reminder, the inhibition is the percentage by which the read-out fell short of the control. Broadly, the IC50 is the concentration at which inhibition is half-maximal.

The target of one assay is T1, 5-Lipoxygenase (Homo sapiens, UniProt P09917).
T1 construct: from tissue; host or cells: human heparinized whole blood (endogenous enzyme of its blood cells)
T1 sequence (P09917 1-674): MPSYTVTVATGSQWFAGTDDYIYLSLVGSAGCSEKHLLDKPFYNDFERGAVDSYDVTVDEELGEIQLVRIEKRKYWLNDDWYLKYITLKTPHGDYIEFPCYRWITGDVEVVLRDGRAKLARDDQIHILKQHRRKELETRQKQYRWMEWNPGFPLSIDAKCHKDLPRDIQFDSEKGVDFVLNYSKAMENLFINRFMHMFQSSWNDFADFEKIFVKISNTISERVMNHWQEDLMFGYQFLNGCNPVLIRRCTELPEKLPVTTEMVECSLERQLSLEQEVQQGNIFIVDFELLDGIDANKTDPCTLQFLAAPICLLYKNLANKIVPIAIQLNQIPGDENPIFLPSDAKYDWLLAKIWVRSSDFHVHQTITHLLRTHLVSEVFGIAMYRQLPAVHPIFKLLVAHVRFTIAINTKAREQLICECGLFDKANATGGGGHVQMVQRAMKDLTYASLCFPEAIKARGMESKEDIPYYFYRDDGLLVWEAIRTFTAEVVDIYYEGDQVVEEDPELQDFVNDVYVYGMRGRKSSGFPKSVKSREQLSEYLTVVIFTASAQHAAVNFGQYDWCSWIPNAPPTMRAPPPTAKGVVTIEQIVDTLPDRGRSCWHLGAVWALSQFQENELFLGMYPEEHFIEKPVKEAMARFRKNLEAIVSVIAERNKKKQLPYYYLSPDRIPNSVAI
Briefly: Inhibition of leukotriene biosynthesis: calcium ionophore A23187-induced LTB4 biosynthesis in human whole blood (RIA). The class given is cell-based. Particulars: @ 0.20 μM; human whole blood, A23187; read-out: Inhibition of stimulated LTB4 formation in human whole blood. The procedure: Inhibition of leukotriene biosynthesis was evaluated in an assay, involving calcium ionophore-induced LTB4 biosynthesis expressed human whole blood. Human heparinized whole blood was preincubated with test compounds or vehicle for 15 min at 37° C. followed by calcium ionophore A23187 challenge (final concentration of 8.3 μM) and the reaction terminated after 30 min by adding two volumes of methanol containing prostaglandin B2 as an internal recovery standard. The methanol extract was analyzed for LTB4 using a commercially available radioimmunoassay.
On to `CON=C(c1cc(F)cc(OCc2ccc3c(ccc(=O)n3C)c2)c1)C1CCOCC1` [Example 15, E- and Z-O-methyl-[(3-((1,2-dihydro-1-methyl-2-oxoquinolin-6-yl)methoxy)-5-fluorophen-1-yl)oximinomethyl]tetrahydropyran], for which the inhibition at 0.2 µM is 99.6%.

The same assay, now with this note: @ 0.39 μM; human whole blood, A23187; read-out: Inhibition of stimulated LTB4 formation in human whole blood.
`CON=C(c1cccc(OCc2ccc3ccccc3c2)c1)C1CCOCC1` [Example 7, E- and Z-O-methyl-4-[(3-(naphth-2-yl)methoxyphen-1-yl)oximinomethyl]tetrahydropyran]: the inhibition at 0.39 µM came to 68%.
Still for that read-out and setting: then `Cn1c(=O)ccc2cc(COc3cccc(C(=NO)C4CCOCC4)c3)ccc21` [Example 11, E- and Z-4-[(3-((1,2-dihydro-1-methyl-2-oxoquinolin-6-yl)methoxy)phen-1-yl)oximinomethyl]tetrahydropyran], with 73%.

Still in this assay, the particulars now being: @ 0.78 μM; human whole blood, A23187; read-out: Inhibition of stimulated LTB4 formation in human whole blood.
Consider `Cn1c(=O)ccc2cc(COc3cc(F)cc(C(=NO)C4CCOCC4)c3)ccc21` [Example 16, E- and Z-4-[(3-((1,2-dihydro-1-methyl-2-oxoquinolin-6-yl)methoxy)-5-fluorophen-1-yl) oximinomethyl]tetrahydropyran], for which the inhibition at 0.78 µM amounted to 98%.
As for `CON=C(c1cccc(OCc2ccc3c(ccc(=O)n3C)c2)c1)C1CCOCC1` [Example 12, E- and Z-O-Methyl-4-[(3-((1,2-dihydro-1-methyl-2-oxoquinolin-6-yl)methoxy)phen-1-yl)oximinomethyl]tetrahydropyran], the inhibition at 0.78 µM stood at 99%.

Still in this assay, the particulars now being: human heparinized whole blood, 15 min preincubation at 37° C., A23187 8.3 μM, 30 min; LTB4 by RIA; read-out: In vitro inhibitory potency against 5-lipoxygenase from stimulated LTB4 formation in human whole blood, IC50.
For the compound `CCON=C(c1cccc(OCc2ccc3c(ccc(=O)n3C)c2)c1)C1CCOCC1` [Example 13, E- and Z-O-Ethyl-4-[(3-((1,2-dihydro-1-methyl-2-oxoquinolin-6-yl)methoxy)phen-1-yl)oximinomethyl]tetrahydropyran], the IC50 was determined as 0.83 µM.
As to `COC1(Cc2cccc(OCc3ccc4ccccc4c3)c2)CCOCC1` [Example 14, 4-methoxy-4-[(3-((naphth-2-yl)methoxy)phen-1-yl)methyl]tetrahydropyran], the IC50 worked out at 2 µM.
Same read-out and setting: with `NN=C(c1cccc(OCc2ccc3ccccc3c2)c1)C1CCOCC1` [Example 6] the figure was 2.4 µM; with `COCOC(c1cccc(OCc2ccc3c(ccc(=O)n3C)c2)c1)C1CCOCC1` (centres unmarked) [Example 10, 4-[(3-((1,2-dihydro-1-methyl-2-oxoquinolin-6-yl)methoxy)phen-1-yl)methoxymethoxymethyl]tetrahydropyran], 0.94 µM.
Still for that read-out and setting: then `COC(c1cccc(OCc2ccc3ccccc3c2)c1)C1CCOCC1` (centres unmarked) [Example 2, 4-[(3-(naphth-2-yl)methoxyphen-1-yl)methoxymethyl]tetrahydropyran], with 0.73 µM; and `CC1(C(=NO)c2cc(F)cc(OCc3ccc4ccccc4c3)c2)COC1` [Example 18, E- and Z-3-methyl-3-[(3-((naphth-2-yl)methoxy)-5-fluorophen-1-yl)oximinomethyl]oxetane], with 5.2 µM; and `COC(c1cccc(OCc2ccc3c(ccc(=O)n3C)c2)c1)C1CCOCC1` (centres unmarked) [Example 9, 4-[(3-(1,2-dihydro-1-methyl-2-oxoquinolin-6-yl)methyloxyphen-1-yl)methoxymethyl]tetrahydropyran], with 0.71 µM.
Same read-out and setting: then `OC(c1cccc(OCc2ccc3ccccc3c2)c1)C1CCOCC1` (centres unmarked) [Example 1, 4-[(3-(naphth-2-yl)methoxyphen-1-yl)hydroxymethyl]tetrahydropyran], with 3.5 µM; and `CON=C(c1cc(F)cc(OCc2ccc3ccccc3c2)c1)C1(C)COC1` [Example 17, E- and Z-O-methyl-3-methyl-3-[(3-((naphth-2-yl)methoxy)-5-fluorophen-1-yl)oximinomethyl]oxetane], with 2.9 µM.
